What is called TGI is the concentration at which net growth stops. Low readings indicate more potent growth arrest, high ones less potent growth arrest.

Test systems include IGROV1 ovarian; NCI/ADR-RES ovarian; OVCAR-8 ovarian; SF-539 CNS; SW-620 colon; T-47D breast; UACC-62 melanoma; NCI-H226 lung; NCI-H460 lung.
Holding throughout (test): DTP human tumour cell line panel, 48 h

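Five concentrations, 48 hours, 96-well plates. TGI denotes the concentration required for complete inhibition of growth.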

Turning to `C(=Nc1ccc(-c2nc3ccccc3[nH]2)cc1)c1ccc[nH]1`, the concentration for total growth inhibition (TGI) in the assay on IGROV1 ovarian, with NCI/ADR-RES ovarian, in the assay with OVCAR-8 ovarian, in the assay with SF-539 CNS, in the assay on SW-620 colon and with T-47D breast was over 100 µM each time. In the assay with UACC-62 melanoma, the TGI was over 100 µM.
As for `CC(=O)c1ccccc1NCC(=O)Nn1cnc2ccc(S(=O)(=O)Nc3ccccc3C(C)=O)cc2c1=O`, the TGI in the assay with IGROV1 ovarian, in the assay with NCI-H226 lung, with NCI-H460 lung, in the assay on NCI/ADR-RES ovarian, with OVCAR-8 ovarian and in the assay on SF-539 CNS was over 100 µM each time. The concentration for total growth inhibition (TGI) with SW-620 colon and with UACC-62 melanoma was over 100 µM each time.
As to `COC(=O)CCc1ccc2c(c1)C(=O)CC2`, the total growth inhibition concentration (TGI) with IGROV1 ovarian, with NCI-H460 lung, with NCI/ADR-RES ovarian, with OVCAR-8 ovarian, with SF-539 CNS and in the assay with SW-620 colon was over 100 µM each time. Further, the total growth inhibition concentration (TGI) with T-47D breast was over 100 µM.
On to `CCN(CC)C(=S)Nc1ccc(-c2cc3ccc(O)cc3oc2=O)cc1`, for which the concentration for total growth inhibition (TGI) in the assay with IGROV1 ovarian is over 100 µM; in the assay on NCI-H226 lung, 99.5 µM; in the assay on NCI-H460 lung it was over 100 µM; in the assay on NCI/ADR-RES ovarian it was 81.9 µM; in the assay with OVCAR-8 ovarian, over 100 µM; in the assay with SF-539 CNS, over 100 µM. Besides, the TGI in the assay on SW-620 colon and in the assay on UACC-62 melanoma was over 100 µM in each case.
With `CN(C)c1ccc(C=C2C(=O)N(c3ccccc3)N(c3ccccc3)C2=O)cc1`, the TGI in the assay on IGROV1 ovarian, in the assay with NCI-H226 lung, with OVCAR-8 ovarian, with SW-620 colon and in the assay on UACC-62 melanoma was over 100 µM each time.
With `CCOP(=O)(OCC)C(c1ccccc1)N(C(=O)NC(F)(F)F)c1cccc(F)c1` (stereo not drawn), the TGI with IGROV1 ovarian, with NCI-H226 lung, in the assay with NCI-H460 lung, in the assay with NCI/ADR-RES ovarian, in the assay on OVCAR-8 ovarian and in the assay on SF-539 CNS was over 100 µM throughout. Further, in the assay with SW-620 colon, the TGI is over 100 µM.
In the case of `O=C(CCCCCCCCC(=O)N1C(=O)CC(=O)N(c2ccccc2)C1=S)N1C(=O)CC(=O)N(c2ccccc2)C1=S`, the total growth inhibition concentration (TGI) with NCI-H460 lung, in the assay with NCI/ADR-RES ovarian, with OVCAR-8 ovarian, with T-47D breast and in the assay on UACC-62 melanoma was over 100 µM each time.
Take `CC(C)CCCC(C)[C@H]1CC[C@H]2[C@@H]3CC[C@H]4C[C@@H](CCC=C(c5cc(Cl)c(O)c(C(=O)OC(C)C)c5)c5cc(Cl)c(O)c(C(=O)OC(C)C)c5)CC[C@]4(C)[C@H]3CC[C@]12C` (stereo partly drawn): the TGI in the assay with IGROV1 ovarian, in the assay with NCI/ADR-RES ovarian, in the assay on OVCAR-8 ovarian, in the assay on SF-539 CNS, with SW-620 colon and with T-47D breast was over 50 µM each time. The TGI with UACC-62 melanoma was over 50 µM.
For `CN(CCO)CCCC1COc2ccccc2O1` (stereo not drawn), the TGI with IGROV1 ovarian, in the assay with NCI-H226 lung, in the assay with NCI-H460 lung, in the assay with NCI/ADR-RES ovarian, with OVCAR-8 ovarian and with SF-539 CNS was over 100 µM in each case. Moreover, the total growth inhibition concentration (TGI) in the assay on SW-620 colon and in the assay on UACC-62 melanoma was over 100 µM each time.
As for `CCCCCCCC(CC(=O)NC(CO)C(=O)NC(CO)CC(C)C)OC(=O)CC(CCCCCCC)OC(=O)CC(CCCCCCC)OC1OC(C)C(O)C(OC2OC(C)C(O)C(O)C2OC(C)=O)C1O` (stereo not drawn), the TGI is 23 µM in the assay with IGROV1 ovarian; 39 µM in the assay with NCI-H226 lung; 15.4 µM in the assay with NCI-H460 lung; 22.4 µM in the assay on OVCAR-8 ovarian; 23.5 µM in the assay with SF-539 CNS; 22.2 µM in the assay with SW-620 colon. Moreover, the values for the total growth inhibition concentration (TGI) with T-47D breast and in the assay on UACC-62 melanoma were 21 µM and 18.6 µM, respectively.
With `CCOC(=O)c1c(-c2ccc(Cl)cc2)c(C#N)c(=S)n(C2OC(COC(C)=O)C(OC(C)=O)C(OC(C)=O)C2OC(C)=O)c1-c1ccccc1` (stereo not drawn), the TGI with IGROV1 ovarian, with NCI-H460 lung, in the assay on NCI/ADR-RES ovarian, in the assay with SF-539 CNS, in the assay on SW-620 colon and in the assay on T-47D breast was over 100 µM throughout. This compound also yielded a total growth inhibition concentration (TGI) in the assay with UACC-62 melanoma of over 100 µM.
Consider `C[n+]1c(-c2ccc(/C=N/Nc3ccnc(N/N=C/c4ccc(-c5cn6ccsc6[n+]5C)cc4)n3)cc2)cn2ccsc21`, for which the TGI with IGROV1 ovarian is over 100 µM; in the assay with NCI-H226 lung it was 60.6 µM; in the assay on NCI-H460 lung, 91.3 µM; with NCI/ADR-RES ovarian, over 100 µM; in the assay on OVCAR-8 ovarian it was over 100 µM; in the assay on SF-539 CNS, over 100 µM. For the same compound, the TGI in the assay on SW-620 colon and in the assay with UACC-62 melanoma was over 100 µM in each case.
Turning to `COc1ccc2c(c1)C/C(=C\c1cccc3ccccc13)C2=O`, the concentration for total growth inhibition (TGI) was over 100 µM in the assay on IGROV1 ovarian; 59.7 µM in the assay with NCI-H226 lung; over 100 µM with NCI-H460 lung; over 100 µM in the assay on NCI/ADR-RES ovarian; over 100 µM with OVCAR-8 ovarian; 44.8 µM in the assay with SF-539 CNS. For the same compound, the TGI with SW-620 colon and in the assay on UACC-62 melanoma was over 100 µM throughout.

These data come from PubChem BioAssay (NCI).
